Laboratory results taken from paper PMC12775434, “Ultra-large virtual screening unveils potent agonists of the neuromodulatory orphan receptor GPR139” (Nature Communications, 2025).
Values joined by “and” are separate entries in the source; they are usually repeats but may differ in a detail not shown here. Identical values can stand only once.

What was measured:
Format in all cases: cell-based
GPR139 [1] = target: T1, GPR139 (Homo sapiens, UniProt Q6DWJ6); assay: Ca2+ mobilization assay, agonist mode, stable GPR139-CHOk1 cell line; conditions: for EC50 / Emax: Supplementary Table 2, mean ± SEM; for EC50: read-out: pEC50 Ca2+ (converted); for Emax: normalized to Lundbeck Cmp 1a, read-out: Emax (%) Ca2+
T1 sequence (Q6DWJ6 1-353): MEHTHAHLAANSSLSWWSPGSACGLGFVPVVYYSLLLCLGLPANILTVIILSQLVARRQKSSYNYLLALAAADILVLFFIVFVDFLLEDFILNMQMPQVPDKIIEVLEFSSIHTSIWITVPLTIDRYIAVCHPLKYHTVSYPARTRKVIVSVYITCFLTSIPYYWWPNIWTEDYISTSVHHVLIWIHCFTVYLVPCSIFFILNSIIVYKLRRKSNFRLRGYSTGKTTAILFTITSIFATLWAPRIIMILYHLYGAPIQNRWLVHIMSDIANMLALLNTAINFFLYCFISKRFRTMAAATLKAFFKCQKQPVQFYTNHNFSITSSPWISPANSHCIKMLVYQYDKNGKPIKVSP
In short: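 Agonist activity of compounds is assessed in stably transfected CHO-K1 cells using the calcium dye Fluo-4 at 37 °C in HEPES-buffered HBSS (pH 7.4). Efficacy is expressed relative to the reference agonist Lundbeck Cmp 1a, set as 100%.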

GPR139 [2] = target: T1, GPR139; assay: Ca2+ mobilization assay, antagonist mode (EC80 800 nM Lundbeck Cmp 1a after 20 min preincubation), GPR139-CHOk1; conditions: individual replicates (Supplementary Figure 4)
In short: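 Fluo-4-loaded GPR139-CHOk1 cells in HEPES-buffered HBSS (pH 7.4, 2.5 mM probenecid) given test compounds at 10 µM, then after 20 min challenged with 800 nM Lundbeck Cmp 1a (EC80). Calcium fluorescence read at 37 °C, 485/525 nm.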

[3] = target: T2, human muscarinic acetylcholine M1 receptor (M1R) (Homo sapiens, UniProt P11229); assay: Ca2+ mobilization counter-screen in M1R-CHOk1 cells; conditions: individual replicates (Supplementary Figure 5)
T2 sequence (P11229 1-460): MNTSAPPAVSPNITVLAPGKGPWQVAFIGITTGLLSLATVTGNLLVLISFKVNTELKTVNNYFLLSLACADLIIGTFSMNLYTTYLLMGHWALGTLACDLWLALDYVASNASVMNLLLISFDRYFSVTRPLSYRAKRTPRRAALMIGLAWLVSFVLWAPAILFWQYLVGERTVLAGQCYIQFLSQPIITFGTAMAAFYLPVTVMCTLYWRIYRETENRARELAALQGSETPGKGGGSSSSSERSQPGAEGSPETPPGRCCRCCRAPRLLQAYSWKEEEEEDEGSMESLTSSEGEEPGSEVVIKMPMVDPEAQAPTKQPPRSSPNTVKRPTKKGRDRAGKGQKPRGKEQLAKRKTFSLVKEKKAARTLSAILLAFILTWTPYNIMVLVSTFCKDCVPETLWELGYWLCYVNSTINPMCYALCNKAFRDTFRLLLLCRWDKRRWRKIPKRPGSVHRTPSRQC
In short: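 Intracellular calcium is tracked by Fluo-4 fluorescence at 37 °C in M1R-CHOk1 cells, with compounds dispensed automatically once baseline is taken. Buffer is HBSS with 20 mM HEPES, pH 7.4, plus 2.5 mM probenecid.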

[4] = Agonist mode, individual replicates (Supplementary Figure 4)
[5] = log [Compound] M = -4.5, individual replicate columns
[6] = log [Compound] M = -5.0, individual replicate columns
[7] = log [Compound] M = -5.5, individual replicate columns
[8] = log [Compound] M = -6.0, individual replicate columns
[9] = log [Compound] M = -6.5, individual replicate columns
[10] = log [Compound] M = -7.0, individual replicate columns
[11] = log [Compound] M = -7.5, individual replicate columns
[12] = log [Compound] M = -8.0, individual replicate columns
[13] = log [Compound] M = -8.5, individual replicate columns
[14] = log [Compound] M = -9.0, individual replicate columns

Row | EC50 (GPR139 [1]) | Emax (GPR139 [1]) | Compound | Ca2+ signal (% of Cmp 1a) (GPR139 [1]; [4]) | Ca2+ signal (% of Cmp 1a) (GPR139 [1]; [5]) | Ca2+ signal (% of Cmp 1a) (GPR139 [1]; [6]) | Ca2+ signal (% of Cmp 1a) (GPR139 [1]; [7]) | Ca2+ signal (% of Cmp 1a) (GPR139 [1]; [8]) | Ca2+ signal (% of Cmp 1a) (GPR139 [1]; [9]) | Ca2+ signal (% of Cmp 1a) (GPR139 [1]; [10]) | Ca2+ signal (% of Cmp 1a) (GPR139 [1]; [11]) | Ca2+ signal (% of Cmp 1a) (GPR139 [1]; [12]) | Ca2+ signal (% of Cmp 1a) (GPR139 [1]; [13]) | Ca2+ signal (% of Cmp 1a) (GPR139 [1]; [14]) | Ca2+ signal (% of Cmp 1a) (GPR139 [2]) | Ca2+ signal (% of Carbachol) [3]
1 | 3.16 µM | 82 ± 9% | Cc1ccc(-c2nc(CC(=O)NC(C)c3ccccc3)no2)cn1 (stereo not drawn) [Compound 1.32, CC(C1=CC=CC=C1)NC(CC2=NOC(C3=CN=C(C)C=C3)=N2)=O] | 72 % of Cmp 1a and 83 % of Cmp 1a | 119 % of Cmp 1a and 81 % of Cmp 1a and 67 % of Cmp 1a | 69 % of Cmp 1a (2×) and 43 % of Cmp 1a | 37 % of Cmp 1a and 66 % of Cmp 1a and 27 % of Cmp 1a | 13 % of Cmp 1a and 24 % of Cmp 1a and -2 % of Cmp 1a | -0.322 % of Cmp 1a and 4.26 % of Cmp 1a and 0.586 % of Cmp 1a | -6.64 % of Cmp 1a and 3.41 % of Cmp 1a and 1.32 % of Cmp 1a | -5 % of Cmp 1a and 2.31 % of Cmp 1a and 1.1 % of Cmp 1a | 10 % of Cmp 1a and 3 % of Cmp 1a and 2.26 % of Cmp 1a | 1.63 % of Cmp 1a and 4.29 % of Cmp 1a and 1.12 % of Cmp 1a | -8 % of Cmp 1a and 9 % of Cmp 1a and -2.5 % of Cmp 1a | 66 % of Cmp 1a and 64 % of Cmp 1a and 48 % of Cmp 1a | -19 % of Carbachol and -6 % of Carbachol and 8 % of Carbachol
2 | 3.98 µM | 88 ± 2% | Cc1nonc1Cc1nc(CC(=O)NC(C)c2ccccc2)no1 (stereo not drawn) [Compound 1.33, CC(C1=CC=CC=C1)NC(CC2=NOC(CC3=NON=C3C)=N2)=O] | 66 % of Cmp 1a and 46 % of Cmp 1a and 64 % of Cmp 1a | 85 % of Cmp 1a (2×) and 90 % of Cmp 1a and 83 % of Cmp 1a | 66 % of Cmp 1a and 64 % of Cmp 1a and 75 % of Cmp 1a and 85 % of Cmp 1a | 43 % of Cmp 1a and 39 % of Cmp 1a and 20 % of Cmp 1a and 51 % of Cmp 1a | 15 % of Cmp 1a and 21 % of Cmp 1a and 26 % of Cmp 1a and -5 % of Cmp 1a | 7 % of Cmp 1a and 26 % of Cmp 1a and 10 % of Cmp 1a and -17 % of Cmp 1a | -3.33 % of Cmp 1a and 29 % of Cmp 1a and 0 % of Cmp 1a and -12 % of Cmp 1a | 3 % of Cmp 1a and 6.33 % of Cmp 1a and 6 % of Cmp 1a and -13 % of Cmp 1a | 1 % of Cmp 1a and 1.67 % of Cmp 1a and 3 % of Cmp 1a and -15 % of Cmp 1a | 1.33 % of Cmp 1a (2×) and -3 % of Cmp 1a and -12 % of Cmp 1a | 4.33 % of Cmp 1a and 6.33 % of Cmp 1a and 12 % of Cmp 1a and -16 % of Cmp 1a | 30 % of Cmp 1a and 49 % of Cmp 1a and 42 % of Cmp 1a | -5 % of Carbachol and 8 % of Carbachol and 10 % of Carbachol
